# Experimental data taken from patent US4599362A, “2-aryl-ethyl ether derivatives and insecticidal and acaricidal agents containing said derivatives” (priority 1980, dated 1986).
# Read-outs that look alike come from different tables or passages of the source.
# Columns and labels:
# German cockroach = test: Test 7: Effect on German Cockroach; type: in vivo; conditions: Blattella germanica, male adults, 24 hours, agonized and killed; for mortality at 10 mg/m2: 10 mg/m^2; for mortality at 50 mg/m2: 50 mg/m^2
# Summary of the method: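 Dish bottoms were treated with 50 or 10 mg/m^2 of test compound and air-dried, then 10 male adult cockroaches were released per dish and held at 25° C. Agonized and killed adults were counted after 24 hours, averaged over two dishes.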
# green peach aphids = test: Test 5: Effect on green peach Aphid; type: in vivo; conditions: Myzus persicae, 24 hours, mortality class, read-out: Insecticidal Activity
# Protocol: To a mixture of 20 parts of the compound of the present invention and 20 parts of Sorpol SM-200 (registered trademark for the product supplied by Toho Chemical Industrial Co., Ltd.) was added 60 parts of xylol, and the mixture was sufficiently blended. The obtained emulsifiable concentrate was diluted at a predetermined concentration with distilled water, and the obtained dilution was used.
# Seedlings (having 3 to 4 leaves) of an eggplant grown on a pot were inoculated with green peach aphids and the insects were allowed to grow. The number of the insects was counted. A chemical dilution having a concentration of 100 ppm, prepared in the same manner as described in Test 1, was applied with a spray gun at a rate of 10 ml per pot. Then, the pot was placed in a glass green house. After 24 hours, the number of living insects was counted and the mortality was calculated.
# The test was made on three pots, and the average value was calculated. In Table 6, mark "A" indicates a mortality higher than 95%, mark "B" indicates a mortality of 80 to 95%, mark "C" indicates a mortality of 50 to 80%, and mark "D" indicates a mortality lower than 50%.
# [1] = test system: third-instar larvae of diamond back moth; test: Test 4: Effect on Diamond Back Moth; type: in vivo; conditions: Plutella xylostella, 24 hours
# Summary of the method: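 Emulsifiable concentrate diluted in water to 100 or 20 ppm and sprayed at 3 ml per cup onto cabbage leaves holding 10 third-instar diamondback moth larvae. Dead and living larvae counted after 24 h; mortality averaged over three cups.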
# [2] = Test 9: Toxicity Test (acute oral, mice); conditions: mouse, in vivo, po
# Summary of the method: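 Compound dissolved or suspended in corn oil was given orally to male mice of 19–23 g body weight, at 0.2 ml per 10 g. Deaths and effects were recorded after 7 days.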
# two-spotted spider mite = test: Test 6: Effect on Two-Spotted Spider mite adults; type: in vivo; conditions: Tetranychus urticae; 500 ppm; adults; 24 hours; read-out: Mortality (%)
# Summary of the method: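 Kidney bean leaf discs (15 mm) on wet cotton, each holding 10 adult mites, sprayed with 3 ml of a 500 ppm dilution of an emulsifiable concentrate. Kept at 25° C; dead adults counted after 24 hours to give mortality, averaged over three discs.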
# Test 8: Fish Toxicity = type: in vivo; conditions: carp, water, carps, concentration at which 1/2 of the test fishes were killed, read-out: Fish Toxicity, TLm48
# Protocol: A water tank having a width of 60 cm, a length of 30 cm and a height of 40 cm was filled with water, and 10 yearling carps having a body length of about 5 cm were set free in the tank and adapted to the environment in the tank. A test compound was applied so that the concentration in water was 10, 1, or 0.1 ppm. After 48 hours, the numbers of killed and living carps were counted and the influences on the fishes were examined.
# [3] = test system: sensitive green rice leafhopper (collected at Chigasaki); test: Test 3: Effect on Sensitive Green Rice Leafhopper; type: in vivo; conditions: Nephotettix cincticeps, female adults, 24 hours
# Summary of the method: (§1)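 Rice seedlings (2–3 leaves) sprayed with emulsifiable-concentrate dilutions at 100 or 20 ppm, 3 ml per pot, air-dried, then infested with 10 female adults per pot. Mortality counted after 24 h and averaged over three pots.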
# [4] = test system: resistant green rice leafhopper (collected at Nakagawara); test: Test 3: Effect on Resistant Green Rice Leafhopper; type: in vivo, Nephotettix cincticeps Uhler; conditions: Nephotettix cincticeps, 24 h, read-out: Mortality (%) Green Rice Leafhopper Collected at Nakagawara
# Summary of the method: as §1
# [5] = test system: Second-instar and fifth-instar larvae of tobacco cutworm; test: Test 2: Tobacco Cutworm Larva Dipping Test; type: in vivo
# [6] = 20 ppm, second-instar larvae, 24 hours, read-out: Mortality (%) Second-Instar Larvae
# [7] = 100 ppm, second-instar larvae, 24 hours, read-out: Mortality (%) Second-Instar Larvae
# [8] = topical, 24 h, read-out: Mortality (%) Fifth-Instar Larvae
SMILES,mortality at 10 mg/m2 (German cockroach) [%],mortality at 50 mg/m2 (German cockroach) [%],mortality at 100 ppm (green peach aphids) [%],mortality at 20 ppm [1] [%],mortality at 100 ppm [1] [%],LD50 at 168 h [2] [mg/kg],mortality at 500 ppm (two-spotted spider mite) [%],LC50 at 48 h (Test 8: Fish Toxicity) [µg/mL],mortality at 20 ppm [3] [%],mortality at 100 ppm [3] [%],mortality at 20 ppm [4] [%],mortality at 100 ppm [4] [%],"mortality at 20 ppm [5, 6] [%]","mortality at 100 ppm [5, 7] [%]","mortality at 20 ppm [5, 8] [%]","mortality at 100 ppm [5, 8] [%]"
"CC(C)(COCc1ccc(F)c(Oc2ccccc2)c1)c1ccc(Br)cc1 [Compound 18, 3-Phenoxy-4-fluorobenzyl 2-(4-bromophenyl)-2-methylpropyl ether]",100,100,> 95,100,100,> 500,100,> 0.1,–,–,–,–,–,–,–,–
"CC(C)(COCc1ccc(F)c(Oc2ccccc2)c1)c1ccccc1 [Compound 2, 3-Phenoxy-4-fluorobenzyl 2-phenyl-2-methylpropyl ether]",100,100,> 95,100,100,> 500,–,> 1,100,100,100,100,100,100,100,100
"CC(C)(CSCc1ccc(F)c(Oc2ccccc2)c1)c1ccc(Cl)cc1 [Compound 4, 3-Phenoxy-4-fluorobenzyl 2-(4-chlorophenyl)-2-methylpropyl thioether]",90,100,> 95,90,100,> 500,90,> 0.5,–,–,–,–,–,–,–,–
"CC(C)(COCc1ccc(F)c(Oc2ccccc2)c1)c1ccc(-c2ccccc2)cc1 [Compound 61, 3-Phenoxy-4-fluorobenzyl 2-(4-biphenyl)-2-methylpropyl ether]",85,100,> 95,–,–,> 500,100,> 1,100,100,100,100,–,–,–,–
"CC(C)(COCc1ccc(F)c(Oc2ccc(F)cc2)c1)c1ccc(Cl)cc1 [Compound 1, 3-(4-Fluorophenoxy)-4-fluorobenzyl 2-(4-chlorophenyl)-2-methylpropyl ether]",100,100,> 95,100,100,> 500,100,~1,–,–,–,–,80,90,70,80
"CC(C)(COCc1ccc(F)c(Oc2ccccc2)c1)c1ccc(Cl)cc1 [Compound 10, 3-phenoxy-4-fluorobenzyl 2-(4-chlorophenyl)-2-methylpropyl ether]",100,100,> 95,100,100,> 500,100,> 0.1,100,100,100,100,100,100,100,100
"CC(C)(COCc1ccc(F)c(Oc2ccccc2)c1)c1ccc(Oc2ccccc2)cc1 [Compound 52, 3-Phenoxy-4-fluorobenzyl 2-(4-phenoxyphenyl)-2-methylpropyl ether]",100,100,> 95,–,–,–,100,> 1,–,–,–,–,–,–,–,–
"CC(C)(COCc1ccc(F)c(Oc2ccccc2)c1)c1cc(Cl)cc(Cl)c1 [Compound 48, 3-Phenoxy-4-fluorobenzyl 2-(3,5-dichlorophenyl)-2-methylpropyl ether]",–,–,80 to 95,–,–,> 500,–,> 1,100,100,100,100,–,–,–,–
"COCSc1ccc(C(C)(C)COCc2ccc(F)c(Oc3ccccc3)c2)cc1 [Compound 60, 3-Phenoxy-4-fluorobenzyl 2-(4-methoxymethylthiophenyl)-2-methylpropyl ether]",100,100,> 95,95,100,–,–,> 1,90,100,100,100,–,–,–,–
"CC(C)(COCc1ccc(F)c(Oc2ccc(Br)cc2)c1)c1ccc(Cl)cc1 [Compound 15, 3-(4-bromophenoxy)-4-fluorobenzyl 2-(4-chlorophenyl)-2-methylpropyl ether]",100,100,> 95,100,100,> 500,100,> 10,–,–,–,–,100,100,100,100
"CCC(COCc1ccc(F)c(Oc2ccccc2)c1)c1ccc(Cl)cc1 (stereo not drawn) [Compound 6, 3-Phenoxy-4-fluorobenzyl 2-(4-chlorophenyl)-butyl ether]",100,100,> 95,100,100,> 500,100,> 1,100,100,100,100,90,100,85,100
"CC(C)(COCc1ccc(Cl)c(Oc2ccccc2)c1)c1ccc(Cl)cc1 [Compound 3, 3-Phenoxy-4-chlorobenzyl 2-(4-chlorophenyl)-2-methylpropyl ether]",90,100,> 95,100,100,> 500,90,> 10,80,100,90,100,–,–,–,–
"CCCCCOc1ccc(C(C)(C)COCc2ccc(F)c(Oc3ccccc3)c2)cc1 [Compound 38, 3-Phenoxy-4-fluorobenzyl 2-(4-n-pentyloxyphenyl)-2-methylpropyl ether]",100,100,> 95,100,100,–,100,> 1,–,–,–,–,–,–,–,–
"CCOc1ccc(C(C)(C)COCc2ccc(F)c(Oc3ccc(Br)cc3)c2)cc1 [Compound 68, 3-(4-Bromophenoxy)-4-fluorobenzyl 2-(4-ethoxyphenyl)-2-methylpropyl ether]",–,–,> 95,100,100,> 500,–,> 1,100,100,100,100,–,–,–,–
